Laboratory results from publication PMC9090415, “Discovery of small molecule inhibitors of Plasmodium falciparum apicoplast DNA polymerase” (Journal of Enzyme Inhibition and Medicinal Chemistry, 2022).

Biological target: P. falciparum apicoplast DNA polymerase (Pf-apPOL) (Plasmodium falciparum, UniProt Q8ILY1)
Experiment: Fluorescence-based high-throughput DNA polymerase assay (molecular beacon), primary screen and dose-response;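 for % inhibition ApPOL 90': test concentration in µM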;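 for % inhibition Apol 40': compound concentration given in µM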;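 for % inhibition apPOL 180': test concentration in µM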
Format: biochemical
Details: for DNA Pol: 90 min, 10 µM
Outline: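 Single-point screening used 10 µM compound with 20 nM polymerase, 20 nM hairpin substrate and 6 µM dNTPs for 90 min at 25 °C. Confirmatory titrations (2.5–80 µM) followed fluorescence at three times, and IC50 was derived from a fit including a cooperativity term n.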

[1] = "DNA Pol" of the 186 hits list (screen value)
[2] = first dose-response set, concentration 80

P. falciparum apicoplast DNA polymerase (Pf-apPOL), sequence (Q8ILY1 entry or part of it): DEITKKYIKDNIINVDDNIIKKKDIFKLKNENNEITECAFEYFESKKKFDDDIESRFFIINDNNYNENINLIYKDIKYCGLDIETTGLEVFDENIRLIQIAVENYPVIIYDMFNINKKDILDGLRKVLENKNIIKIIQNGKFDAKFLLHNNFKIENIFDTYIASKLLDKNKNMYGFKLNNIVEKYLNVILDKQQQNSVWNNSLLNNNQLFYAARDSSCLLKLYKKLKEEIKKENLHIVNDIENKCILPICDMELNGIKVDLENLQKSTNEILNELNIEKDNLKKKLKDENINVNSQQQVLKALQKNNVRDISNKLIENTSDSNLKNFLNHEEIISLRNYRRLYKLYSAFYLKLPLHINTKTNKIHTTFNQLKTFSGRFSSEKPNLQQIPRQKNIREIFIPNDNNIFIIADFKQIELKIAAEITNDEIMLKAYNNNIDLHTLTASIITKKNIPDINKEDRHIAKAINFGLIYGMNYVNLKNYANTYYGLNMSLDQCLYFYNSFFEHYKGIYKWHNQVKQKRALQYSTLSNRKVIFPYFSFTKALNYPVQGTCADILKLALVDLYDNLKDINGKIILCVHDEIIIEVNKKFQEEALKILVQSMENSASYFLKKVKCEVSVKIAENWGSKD

## CN(C)S(=O)(=O)Oc1ccc(-c2noc(-c3ccc(Oc4cc(Cl)cc(Cl)c4)o3)n2)cc1 [KU0263859]
[1]
  DNA Pol: 81
DRC-1, concentration 2.5
  % inhibition Apo pol 10': 3.819%
  % inhibition Apol 90': 1.99%
  % inhibition apPOL 180': 0.6453%
DRC-1, concentration 5
  % inhibition Apo pol 10': 17.153%
  % inhibition Apol 90': 7.942%
  % inhibition apPOL 180': 1.378%
DRC-1, concentration 10
  % inhibition Apo pol 10': 39.7031%
  % inhibition Apol 90': 26.2984%
  % inhibition apPOL 180': 13.3092%
DRC-1, concentration 20
  % inhibition Apo pol 10': 66.3992%
  % inhibition Apol 90': 55.9318%
  % inhibition apPOL 180': 44.3234%
DRC-1, concentration 40
  % inhibition Apo pol 10': 79.6706%
  % inhibition Apol 90': 71.2326%
  % inhibition apPOL 180': 58.5688%
DRC-1, concentration 80
  % inhibition Apo pol 10': 81.4369%
  % inhibition Apol 90': 82.3525%
  % inhibition apPOL 180': 76.7438%
DRC-2, concentration 2.5
  % inhibition Apo pol 5': 2.6%
  % inhibition Apol 40': 3%
  % inhibition ApPOL 90': 0.164%
  % inhibition apPOL 180': -5.61%
DRC-2, concentration 5
  % inhibition Apo pol 5': 18%
  % inhibition Apol 40': 16%
  % inhibition ApPOL 90': 12%
  % inhibition apPOL 180': 5.64%
DRC-2, concentration 10
  % inhibition Apo pol 5': 34%
  % inhibition Apol 40': 36%
  % inhibition ApPOL 90': 32%
  % inhibition apPOL 180': 20%
DRC-2, concentration 20
  % inhibition Apo pol 5': 47%
  % inhibition Apol 40': 57%
  % inhibition ApPOL 90': 56%
  % inhibition apPOL 180': 47%
DRC-2, concentration 40
  % inhibition Apo pol 5': 47%
  % inhibition Apol 40': 65%
  % inhibition ApPOL 90': 67%
  % inhibition apPOL 180': 65%
DRC-2, concentration 80
  % inhibition Apo pol 5': 46%
  % inhibition Apol 40': 68%
  % inhibition ApPOL 90': 73%
  % inhibition apPOL 180': 76%
Primary screen value, DNA Pol
  DNA Pol: 81

## COc1ccc(-c2cc3nc4c(c(=O)n3[nH]2)CCN(C(=O)CCc2ccccc2)C4)cc1 [Molecule 17, COc1ccc(cc1)c1[nH]n2c(c1)nc1c(c2=O)CCN(C1)C(=O)CCc1ccccc1]
'DNA Pol' of the 186 hits list (primary screen value)
  DNA Pol: 52
DNA Pol (primary screen value)
  DNA Pol: 52
DRC-1, concentration 2.5
  % inhibition Apo pol 10': 3%
  % inhibition Apol 90': -3.33%
  % inhibition apPOL 180': -7%
DRC-1, concentration 5
  % inhibition Apo pol 10': 30%
  % inhibition Apol 90': 18%
  % inhibition apPOL 180': 7.5%
DRC-1, concentration 10
  % inhibition Apo pol 10': 64%
  % inhibition Apol 90': 49%
  % inhibition apPOL 180': 34%
DRC-1, concentration 20
  % inhibition Apo pol 10': 81%
  % inhibition Apol 90': 69%
  % inhibition apPOL 180': 55%
DRC-1, concentration 40
  % inhibition Apo pol 10': 82%
  % inhibition Apol 90': 72%
  % inhibition apPOL 180': 58%
DRC-1, concentration 80
  % inhibition Apo pol 10': 78%
  % inhibition Apol 90': 78%
  % inhibition apPOL 180': 70%
DRC-2, concentration 2.5
  % inhibition Apo pol 5': -5.33%
  % inhibition Apol 40': -5.29%
  % inhibition ApPOL 90': -4.53%
  % inhibition apPOL 180': -5%
DRC-2, concentration 5
  % inhibition Apo pol 5': 12%
  % inhibition Apol 40': 14%
  % inhibition ApPOL 90': 13%
  % inhibition apPOL 180': 6%
DRC-2, concentration 10
  % inhibition Apo pol 5': 31%
  % inhibition Apol 40': 35%
  % inhibition ApPOL 90': 33%
  % inhibition apPOL 180': 24%
DRC-2, concentration 20
  % inhibition Apo pol 5': 43%
  % inhibition Apol 40': 54%
  % inhibition ApPOL 90': 53%
  % inhibition apPOL 180': 44%
DRC-2, concentration 40
  % inhibition Apo pol 5': 44%
  % inhibition Apol 40': 57%
  % inhibition ApPOL 90': 57%
  % inhibition apPOL 180': 50%
DRC-2, concentration 80
  % inhibition Apo pol 5': 38%
  % inhibition Apol 40': 58%
  % inhibition ApPOL 90': 61%
  % inhibition apPOL 180': 58%
[2]
  % inhibition Apo pol 10': 78%
  % inhibition Apol 90': 78%
First dose-response set, concentration 40
  % inhibition apPOL 180': 58%

## Cc1ccc(C(=O)/C=C/C=C/C=C/N(C)C)o1 [Molecule 96, CN(/C=C/C=C/C=C/C(=O)c1ccc(o1)C)C]
[1]
  DNA Pol: 48
DRC-1, concentration 2.5
  % inhibition Apo pol 10': 21.8998%
  % inhibition Apol 90': 11.0382%
  % inhibition apPOL 180': 1.481%
DRC-1, concentration 5
  % inhibition Apo pol 10': 52.2247%
  % inhibition Apol 90': 37.6511%
  % inhibition apPOL 180': 22.6897%
DRC-1, concentration 10
  % inhibition Apo pol 10': 71.8634%
  % inhibition Apol 90': 62.1527%
  % inhibition apPOL 180': 46.7432%
DRC-1, concentration 20
  % inhibition Apo pol 10': 65.9561%
  % inhibition Apol 90': 58.9151%
  % inhibition apPOL 180': 45.7545%
DRC-1, concentration 40
  % inhibition Apo pol 10': 68.0612%
  % inhibition Apol 90': 72.0375%
  % inhibition apPOL 180': 68.8362%
DRC-1, concentration 80
  % inhibition Apo pol 10': 57.2941%
  % inhibition Apol 90': 69.2174%
  % inhibition apPOL 180': 73.043%
DRC-2, concentration 2.5
  % inhibition Apo pol 5': 1.29%
  % inhibition Apol 40': 3.43%
  % inhibition ApPOL 90': 1%
  % inhibition apPOL 180': -4.64%
DRC-2, concentration 5
  % inhibition Apo pol 5': 13%
  % inhibition Apol 40': 26%
  % inhibition ApPOL 90': 23%
  % inhibition apPOL 180': 13%
DRC-2, concentration 10
  % inhibition Apo pol 5': 21%
  % inhibition Apol 40': 44%
  % inhibition ApPOL 90': 44%
  % inhibition apPOL 180': 36%
DRC-2, concentration 20
  % inhibition Apo pol 5': 2.29%
  % inhibition Apol 40': 42%
  % inhibition ApPOL 90': 47%
  % inhibition apPOL 180': 47%
DRC-2, concentration 40
  % inhibition Apo pol 5': -21%
  % inhibition Apol 40': 32%
  % inhibition ApPOL 90': 44%
  % inhibition apPOL 180': 51%
DRC-2, concentration 80
  % inhibition Apo pol 5': -45%
  % inhibition Apol 40': 20%
  % inhibition ApPOL 90': 38%
  % inhibition apPOL 180': 53%
Primary screen value, DNA Pol
  DNA Pol: 48
